Patent US20220160658A1, “TESOFENSINE FOR REDUCTION OF BODY WEIGHT IN PRADER-WILLI PATIENTS” (Saniona A/S, priority 2019, published 2022)
Where “and” joins values, the source holds several entries; their conditions need not be identical. Identical values can stand only once.

Experiments:
[1] = in vivo; cited from earlier work
[2] = Phase 2a trial in adult PWS patients: tesofensine plasma concentration; format: in vivo, human; conditions: for Mean trough plasma concentration of tesofensine: TM002 study, 0.50 mg tesofensine + 50 mg metoprolol daily
Procedure: This exploratory Phase 2a trial comprised in of a total of nine adult patients with Prader-Willi syndrome (PWS) of which six patients received co-administration of tesofensine (0.50 mg)/metoprolol (50 mg) (A, active treatment—Tesomet) and three patients received placebo (P). The initial plan was to complete 10-20 adult subjects with PWS. However, ultimately nine patients were randomized as more subjects were not available at the two participating sites.
The main objective of this study was to examine the effect of co-administration of tesofensine/metoprolol on body weight in subjects with PWS. Further objectives were: • To establish a pharmacokinetic profile of tesofensine and metoprolol in subjects with PWS. • To examine the effect of co-administration of tesofensine/metoprolol on glycaemic control and lipid profile in subjects with PWS • To examine the effect of co-administration of tesofensine/metoprolol on HR and BP in subjects with PWS • To examine the effects of co-administration of tesofensine/metoprolol on body composition in subjects with PWS • To evaluate overall safety and tolerability of co-administration of the tesofensine/metoprolol in subjects with PWS
Arm 1) tesofensine 0.50 mg+metoprolol 50 mg administered once a day, in the morning with a meal
The study included two arms: Tesomet 0.5/50 (combination of 0.50 mg tesofensine and 50 mg of metoprolol ER) or placebo tablets matching tesofensine+metoprolol succinate, each administered once daily in the morning with a meal.
The primary endpoint was change in body weight following 91 days of treatment with either tesofensine+metoprolol or placebo. Patients were weighed throughout the study period to track changes in body weight. Secondary endpoints included change in hyperphagia-related behavior, pharmacokinetic profile, effects of co-administration of tesofensine/metoprolol on HR, BP, glycemic control, lipid profile and body composition, and safety and tolerability.

[3] = Phase 2a trial in adolescent PWS patients: body weight and BMI, random coefficients analysis; format: in vivo, human
Procedure: Arm 1) tesofensine 0.125 mg+metoprolol 25 mg administered once a day, in the morning with a meal-first, an initial titration dose of tesofensine 0.0625 mg+metoprolol 25 mg will be given for the first 4 weeks, in the morning with a meal. Following a favorable review of all safety data for each subject by the investigator, tesofensine 0.125 mg+metoprolol 25 mg will be given for the final 9 weeks (the above proposed dosing plan can be adjusted by the DSMB, if needed)
(§1) This study included a double blind (DB) part (3 months) and two Open Label Extensions (OLE), each 3 months. Adolescents (12 to 17 years of age) received: tesofensine 0.125 mg daily (0.25 mg every second day)+metoprolol succinate 25 mg. Example 4 relates to Example 2.
(§2) The initial double blind (DB) phase of this study utilized a dose of tesofensine of 0.125 mg daily. In the first 3-month Open Label Extension (OLE1), a dose of 0.125 mg tesofensine was maintained. In the second OLE (OLE2), the tesofensine dose, if judged safe by the principle investigator (PI), was increased to 0.25 mg daily.
In the random coefficients analysis, each subject was considered as having their own profile of data, i.e. their own set of weight change/hyperphagia values and corresponding pk values. The analysis was essentially conducted by fitting a regression line to each subject individually:
where j denotes subjects, j=1 to m, and i denotes the measurement with subject j, i=1 to nj. The slope βj and intercept αj estimate for each subject j=1 to m, along with their standard errors, were then obtained. In a final step, the βj and αj values were averaged across the m subjects to give the overall mean regression slope and mean intercept, βj and αj, which gives the correlation line, as well as the associated confidence interval.

[4] = Phase 2a trial in adolescent PWS patients: hyperphagia score; format: in vivo, human
Procedure: as §1, §2

[5] = Phase 2a trial in adolescent PWS patients: tesofensine plasma levels; format: in vivo, human; conditions: for concentration at 3 months: human, plasma, oral
Procedure: as §1, §2

[6] = cited from earlier work
[7] = test system: rat model of diet-induced obesity (DIO); conditions: DIO rats; cited from earlier work
[8] = cited from earlier work; remark: listed apart in the source
[9] = 0.125 mg tesofensine daily (DB, OLE1)

SMILES: COCCc1ccc(OCC(O)CNC(C)C)cc1 (stereo not drawn) [Metoprolol, 1-(Isopropylamino)-3-[4-(2-methoxyethyl)-phenoxy]-propan-2-ol, reference compound]
- half-life [1]: 3 to 4 h

SMILES: CCOC[C@@H]1[C@@H](c2ccc(Cl)c(Cl)c2)C[C@@H]2CC[C@H]1N2C [Tesofensine, (1R,2R,3S,5S)-3-(3,4-dichlorophenyl)-2-(ethoxymethyl)-8-methyl-8-azabicyclo[3.2.1]octane]
- Mean trough plasma concentration of tesofensine ([2]; V5 (day 28), n = 6): 18 ± 9 ng/mL
- Mean trough plasma concentration of tesofensine ([2]; V9 (day 56), n = 5): 21 ± 8 ng/mL
- Mean trough plasma concentration of tesofensine ([2]; V14 (day 91), n = 2): 23 ± 1 ng/mL
- plasma levels of tesofensine ([2]; adult PWS, 0.50 mg tesofensine and 50 mg metoprolol): 20 to 40 ng/mL
- plasma concentration in individual patients ([2]; adult PWS, 0.5 mg tesofensine, two patients): 34.1 ng/mL and 34.2 ng/mL
- mean trough plasma concentration ([2]; adult PWS, dosing of 0.5 mg tesofensine, whole study): ~20 ng/mL
- weight change compared to placebo ([3]; adolescent PWS, DB phase, 0.125 mg tesofensine dose): No difference compared to placebo
- decrease in weight ([3]; adolescent PWS, at 10 ng/mL tesofensine plasma level, from the correlation analysis): around 2%
- tesofensine plasma level that counteracts the baseline weight gain of around 3% ([3]; adolescent PWS, random coefficients analysis): around 6 ng/mL
- Slope (SE), monthly BMI change versus tesofensine plasma level ([3]; random coefficients analysis, N=8, p=0.0031): −0.478 (0.1081)
- Slope (SE), monthly body weight change versus tesofensine plasma level ([3]; random coefficients analysis, N=8, p=0.0046): −0.460 (0.1120)
- hyperphagia scores compared to placebo ([4]; DB part and OLE1, 0.125 mg tesofensine daily): did not differ from placebo
- hyperphagia compared to placebo ([4]; DB phase, 0.125 mg tesofensine dose): No difference compared to placebo
- hyperphagia scores ([4]; OLE2, 0.25 mg tesofensine): dropped to single digit numerical values
- plasma levels of tesofensine [5, 9]: 3 to 5 ng/mL
- concentration at 3 months [5, 9]: 3 to 5 ng/mL
- concentration at 3 months ([5]; 0.25 mg tesofensine daily (OLE2)): 7 to 9 ng/mL
- waist circumference and sagittal diameter ([6]; Astrup et al., 2008): significantly decreases
- weight loss ([6]; obese patients, long-term treatment, corrected for placebo and diet effects): about 10%
- body weight [7]: robust and sustained weight loss
- serum half-life [1]: nine
- average tesofensine trough plasma concentration ([8]; TIPO-1, dose of 0.5 mg Tesofensine): 10 ng/mL
- efficacious target plasma levels ([8]; previous studies in obese individuals at the same dosages): ~10 ng/mL and around 10 ng/mL
